Experimental data: ChEMBL document CHEMBL5678809, “Preclinical characterization of GLPG0634, a selective inhibitor of JAK1, for the treatment of inflammatory diseases” (J Immunol, 2013)
The source made the active and inactive calls. The calls are words filed in the database; no cut-off is given here.

How the values were obtained:
[1] = tested on: Mus musculus; assay: Antiarthritic activity against collagen-induced arthritis DBA/1J mouse model assessed as reduction in IL-6 expression at 50 mg/kg, po measured for 4 hrs; assay type: functional, organism-based
[2] = target: Dual specificity mitogen-activated protein kinase kinase 6 (Homo sapiens) (UniProt P52564); assay: Inhibition of MKK6 (unknown origin) at 1 uM relative to control
[3] = target: Tyrosine-protein kinase Fyn (Homo sapiens) (UniProt P06241); assay: Inhibition of Fyn (unknown origin) at 1 uM relative to control
[4] = target: Ribosomal protein S6 kinase beta-2 (Homo sapiens) (UniProt Q9UBS0); assay: Inhibition of p70S6K2 (unknown origin) at 1 uM relative to control
[5] = target: Macrophage colony-stimulating factor 1 receptor (Homo sapiens, UniProt P07333); assay: Inhibition of FMS (unknown origin)
[6] = target: Serine/threonine-protein kinase Chk2 (Homo sapiens) (UniProt O96017); assay: Inhibition of CHK2 (unknown origin) at 1 uM relative to control
[7] = Clearance in Sprague-Dawley rat at 1 mg/kg, iv measured upto 8 hrs by LC-MS analysis; assay type: ADME, organism-based; settings: in vivo
[8] = target: Tyrosine-protein kinase Mer (Homo sapiens, UniProt Q12866); assay: Inhibition of Mer (unknown origin)
[9] = target: Tyrosine-protein kinase CSK (Homo sapiens) (UniProt P41240); assay: Inhibition of CSK (unknown origin) at 1 uM relative to control
[10] = target: Tyrosine-protein kinase receptor TYRO3 (Homo sapiens) (UniProt Q06418); assay: Inhibition of Rse (unknown origin) at 1 uM relative to control
[11] = tested on: Mus musculus; assay: Antiarthritic activity against collagen-induced arthritis DBA/1J mouse model assessed as reduction in clinical score at 50 mg/kg, po administered twice daily for 14 days; assay type: functional, organism-based; settings: time 14.0 day
[12] = AUC (0 to 24 hrs) in Sprague-Dawley rat at 1 mg/kg, iv measured upto 8 hrs by LC-MS analysis; assay type: ADME, organism-based; settings: in vivo
[13] = target: Rho-associated protein kinase 1 (Homo sapiens, UniProt Q13464); assay: Inhibition of ROCK1 (unknown origin)
[14] = target: Protein-tyrosine kinase 2-beta (Homo sapiens) (UniProt Q14289); assay: Inhibition of Pyk2 (unknown origin) at 1 uM relative to control
[15] = Cmax in Sprague-Dawley rat at 1 mg/kg, iv measured upto 8 hrs by LC-MS analysis; assay type: ADME, organism-based; settings: in vivo
[16] = tested on: Mus musculus; assay: Antiarthritic activity against collagen-induced arthritis DBA/1J mouse model assessed as reduction in Mx1 expression in paw at 50 mg/kg, po measured for 2 weeks by RT-PCR analysis; assay type: functional, organism-based
[17] = target: Tyrosine-protein kinase BTK (Homo sapiens, UniProt Q06187); assay: Inhibition of BTK (unknown origin)
[18] = Tmax in Dark Agouti rat at 3 to 30 mg/kg, po; assay type: ADME, organism-based; settings: in vivo, dose 3-30 mg/kg
[19] = Half life in Dark Agouti rat at 3 to 30 mg/kg, po; assay type: ADME, organism-based; settings: in vivo, dose 3-30 mg/kg
[20] = tested on: Mus musculus; assay: Antiarthritic activity against collagen-induced arthritis DBA/1J mouse model assessed as LIF level in serum at 50 mg/kg, po measured for 4 hrs by luminex analysis (reference value: 696 +/- 108 ng/ml); assay type: functional
[21] = target: Focal adhesion kinase 1 (Homo sapiens) (UniProt Q05397); assay: Inhibition of FAK (unknown origin) at 1 uM relative to control
[22] = target: Vascular endothelial growth factor receptor 1 (Homo sapiens, UniProt P17948); assay: Inhibition of Flt1 (unknown origin) at 1 uM relative to control
[23] = tested on: Mus musculus; assay: Antiarthritic activity against collagen-induced arthritis DBA/1J mouse model assessed as M-CSF1 level in serum at 50 mg/kg, po measured for 4 hrs by luminex analysis (reference value: 11.1 +/- 1.3 ng/ml); assay type: functional
[24] = target: Serine/threonine-protein kinase pim-2 (Homo sapiens) (UniProt Q9P1W9); assay: Inhibition of Pim-2 (unknown origin) at 1 uM relative to control
[25] = target: Serine/threonine-protein kinase D1 (Homo sapiens) (UniProt Q15139); assay: Inhibition of PKC-mu (unknown origin) at 1 uM relative to control
[26] = target: Ribosomal protein S6 kinase alpha-5 (Homo sapiens) (UniProt O75582); assay: Inhibition of MSK1 (unknown origin) at 1 uM relative to control
[27] = tested on: Mus musculus; assay: Antiarthritic activity against collagen-induced arthritis DBA/1J mouse model assessed as reduction in MMP3 expression at 50 mg/kg, po measured for 4 hrs; assay type: functional, organism-based
[28] = target: Serine/threonine-protein kinase NLK (Homo sapiens) (UniProt Q9UBE8); assay: Inhibition of NLK (unknown origin) at 1 uM relative to control
[29] = target: Activated CDC42 kinase 1 (Homo sapiens) (UniProt Q07912); assay: Inhibition of ACK1 (unknown origin) at 1 uM relative to control
[30] = tested on: Mus musculus; assay: Antiarthritic activity against collagen-induced arthritis DBA/1J mouse model assessed as reduction in MMP13 expression at 50 mg/kg, po measured for 4 hrs; assay type: functional, organism-based
[31] = target: Tyrosine-protein kinase FRK (Homo sapiens) (UniProt P42685); assay: Inhibition of PTK5 (unknown origin) at 1 uM relative to control
[32] = tested on: Mus musculus; assay: Antiarthritic activity against collagen-induced arthritis DBA/1J mouse model assessed as reduction in TNFalpha expression at 50 mg/kg, po measured for 4 hrs; assay type: functional, organism-based
[33] = target: Insulin receptor (Homo sapiens) (UniProt P06213); assay: Inhibition of IR (unknown origin) at 1 uM relative to control
[34] = target: Receptor-type tyrosine-protein kinase FLT3 (Homo sapiens) (UniProt P36888); assay: Inhibition of Flt3 (unknown origin) at 1 uM relative to control
[35] = target: Ephrin type-A receptor 2 (Homo sapiens) (UniProt P29317); assay: Inhibition of EphA2 (unknown origin) at 1 uM relative to control
[36] = AUC (0 to 24 hrs) in CD-1 mouse at 1 mg/kg, iv measured upto 8 hrs by LC-MS analysis; assay type: ADME, organism-based; settings: in vivo
[37] = tested on: RPMI-8226; assay: Inhibition of human […] cell differentiation assessed as effect on IL-4 mRNA expression at 0.1 to 1 uM by RT-PCR analysis; assay type: functional, cell-based; settings: dose 0.1-1 µM
[38] = target: Vascular endothelial growth factor receptor 2 (Homo sapiens) (UniProt P35968); assay: Inhibition of KDR (unknown origin) at 1 uM relative to control
[39] = target: Tyrosine-protein kinase Lck (Homo sapiens, UniProt P06239); assay: Inhibition of LCK (unknown origin)
[40] = Clearance in CD-1 mouse at 1 mg/kg, iv measured upto 8 hrs by LC-MS analysis; assay type: ADME, organism-based; settings: in vivo
[41] = tested on: Mus musculus; assay: Antiarthritic activity against collagen-induced arthritis DBA/1J mouse model assessed as bone degradation by measuring lesion score in hind paw at 50 mg/kg, po administered twice daily for 14 days by histological analysis; assay type: functional, organism-based; settings: time 14.0 day

Protein-tyrosine kinase 2-beta (Homo sapiens), sequence (Q14289 whole entry, looked up): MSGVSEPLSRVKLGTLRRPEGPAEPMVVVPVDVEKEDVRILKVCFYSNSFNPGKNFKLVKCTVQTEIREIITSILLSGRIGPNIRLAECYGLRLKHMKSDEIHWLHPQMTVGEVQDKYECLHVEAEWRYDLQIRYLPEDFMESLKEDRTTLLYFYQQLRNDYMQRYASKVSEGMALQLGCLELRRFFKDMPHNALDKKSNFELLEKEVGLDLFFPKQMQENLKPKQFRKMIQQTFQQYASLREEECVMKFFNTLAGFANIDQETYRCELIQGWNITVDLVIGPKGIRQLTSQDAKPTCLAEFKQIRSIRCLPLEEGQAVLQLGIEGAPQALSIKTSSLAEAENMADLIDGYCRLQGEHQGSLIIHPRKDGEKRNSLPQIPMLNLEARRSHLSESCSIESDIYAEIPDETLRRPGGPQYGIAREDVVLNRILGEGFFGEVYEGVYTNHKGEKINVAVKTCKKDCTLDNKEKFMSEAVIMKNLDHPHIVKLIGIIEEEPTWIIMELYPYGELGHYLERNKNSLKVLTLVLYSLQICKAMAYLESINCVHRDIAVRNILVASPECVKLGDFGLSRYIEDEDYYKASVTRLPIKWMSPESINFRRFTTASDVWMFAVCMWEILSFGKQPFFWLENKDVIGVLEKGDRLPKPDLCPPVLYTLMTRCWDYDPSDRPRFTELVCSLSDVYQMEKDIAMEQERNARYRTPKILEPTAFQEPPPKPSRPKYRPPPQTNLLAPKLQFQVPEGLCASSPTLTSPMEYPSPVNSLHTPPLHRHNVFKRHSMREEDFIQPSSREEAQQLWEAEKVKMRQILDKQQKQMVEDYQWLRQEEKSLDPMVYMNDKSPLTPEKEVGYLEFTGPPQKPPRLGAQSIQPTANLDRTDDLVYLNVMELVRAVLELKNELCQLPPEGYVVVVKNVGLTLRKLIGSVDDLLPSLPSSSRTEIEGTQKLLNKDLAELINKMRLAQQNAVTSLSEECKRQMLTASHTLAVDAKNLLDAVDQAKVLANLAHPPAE
Tyrosine-protein kinase Mer, sequence (Q12866 whole entry): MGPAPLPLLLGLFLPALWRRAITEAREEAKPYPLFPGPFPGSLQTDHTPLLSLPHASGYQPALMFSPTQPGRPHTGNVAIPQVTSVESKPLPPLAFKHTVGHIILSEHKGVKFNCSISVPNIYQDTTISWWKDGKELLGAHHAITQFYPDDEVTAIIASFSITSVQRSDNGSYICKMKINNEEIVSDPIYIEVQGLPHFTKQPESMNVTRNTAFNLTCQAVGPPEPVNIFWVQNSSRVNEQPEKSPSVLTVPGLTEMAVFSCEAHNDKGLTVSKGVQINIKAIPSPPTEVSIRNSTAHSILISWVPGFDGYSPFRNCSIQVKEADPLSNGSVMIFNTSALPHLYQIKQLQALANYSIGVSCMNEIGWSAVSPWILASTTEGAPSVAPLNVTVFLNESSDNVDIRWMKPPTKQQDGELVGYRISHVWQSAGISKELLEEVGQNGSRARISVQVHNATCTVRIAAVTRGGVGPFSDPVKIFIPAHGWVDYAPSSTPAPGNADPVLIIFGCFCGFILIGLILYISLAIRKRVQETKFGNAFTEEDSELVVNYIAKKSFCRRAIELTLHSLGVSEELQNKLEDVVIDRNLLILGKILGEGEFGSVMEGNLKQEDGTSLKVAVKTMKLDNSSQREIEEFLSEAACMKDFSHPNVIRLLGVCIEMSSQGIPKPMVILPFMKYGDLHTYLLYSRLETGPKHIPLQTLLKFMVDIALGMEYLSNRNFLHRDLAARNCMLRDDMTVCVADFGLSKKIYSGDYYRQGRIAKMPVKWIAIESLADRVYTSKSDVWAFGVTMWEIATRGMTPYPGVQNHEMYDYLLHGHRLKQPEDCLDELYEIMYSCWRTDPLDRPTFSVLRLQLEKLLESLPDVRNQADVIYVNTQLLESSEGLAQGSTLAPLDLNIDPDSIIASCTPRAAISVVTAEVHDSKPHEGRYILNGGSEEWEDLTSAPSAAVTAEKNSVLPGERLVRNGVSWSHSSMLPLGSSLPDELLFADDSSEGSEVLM
Tyrosine-protein kinase CSK (Homo sapiens), sequence (P41240 2-450 limits assumed): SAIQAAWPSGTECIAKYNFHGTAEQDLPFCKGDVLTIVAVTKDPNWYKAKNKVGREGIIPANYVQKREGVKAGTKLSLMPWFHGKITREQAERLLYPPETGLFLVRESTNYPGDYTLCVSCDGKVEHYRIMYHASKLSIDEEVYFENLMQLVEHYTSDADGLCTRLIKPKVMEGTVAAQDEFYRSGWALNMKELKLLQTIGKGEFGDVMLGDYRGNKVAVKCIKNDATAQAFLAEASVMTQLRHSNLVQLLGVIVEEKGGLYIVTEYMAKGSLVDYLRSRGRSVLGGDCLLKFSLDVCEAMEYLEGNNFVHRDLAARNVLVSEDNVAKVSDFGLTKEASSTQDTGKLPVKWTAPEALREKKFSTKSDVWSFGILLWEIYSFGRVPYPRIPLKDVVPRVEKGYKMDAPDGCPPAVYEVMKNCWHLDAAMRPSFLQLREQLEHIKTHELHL
Ribosomal protein S6 kinase beta-2 (Homo sapiens), sequence (Q9UBS0 whole entry): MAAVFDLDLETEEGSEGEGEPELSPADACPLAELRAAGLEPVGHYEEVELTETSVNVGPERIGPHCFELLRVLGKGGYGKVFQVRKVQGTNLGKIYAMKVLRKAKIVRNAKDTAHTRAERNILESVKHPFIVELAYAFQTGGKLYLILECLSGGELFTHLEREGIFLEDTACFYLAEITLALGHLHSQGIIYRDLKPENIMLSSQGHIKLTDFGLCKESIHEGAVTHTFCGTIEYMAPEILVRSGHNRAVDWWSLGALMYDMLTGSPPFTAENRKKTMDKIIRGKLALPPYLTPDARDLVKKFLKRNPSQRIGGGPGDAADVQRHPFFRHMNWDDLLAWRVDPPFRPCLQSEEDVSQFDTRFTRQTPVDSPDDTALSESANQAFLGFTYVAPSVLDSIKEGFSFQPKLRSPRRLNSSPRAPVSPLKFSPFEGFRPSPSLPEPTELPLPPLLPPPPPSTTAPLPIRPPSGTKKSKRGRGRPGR
Serine/threonine-protein kinase Chk2 (Homo sapiens), sequence (O96017 whole entry): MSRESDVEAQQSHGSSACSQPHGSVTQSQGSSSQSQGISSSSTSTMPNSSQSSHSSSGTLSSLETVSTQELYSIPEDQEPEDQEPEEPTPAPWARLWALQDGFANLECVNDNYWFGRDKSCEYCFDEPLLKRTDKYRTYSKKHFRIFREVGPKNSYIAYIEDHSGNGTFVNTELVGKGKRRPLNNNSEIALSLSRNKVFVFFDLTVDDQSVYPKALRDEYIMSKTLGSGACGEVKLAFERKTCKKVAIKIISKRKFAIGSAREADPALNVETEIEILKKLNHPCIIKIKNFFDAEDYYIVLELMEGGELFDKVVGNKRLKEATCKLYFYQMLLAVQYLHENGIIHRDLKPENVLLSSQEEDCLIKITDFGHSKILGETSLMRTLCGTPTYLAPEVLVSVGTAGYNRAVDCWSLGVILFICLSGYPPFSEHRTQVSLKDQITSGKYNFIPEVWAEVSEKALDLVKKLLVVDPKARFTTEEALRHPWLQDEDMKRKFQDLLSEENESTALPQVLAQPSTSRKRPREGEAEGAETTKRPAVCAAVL
Insulin receptor (Homo sapiens), sequence (P06213 28-758 limits assumed): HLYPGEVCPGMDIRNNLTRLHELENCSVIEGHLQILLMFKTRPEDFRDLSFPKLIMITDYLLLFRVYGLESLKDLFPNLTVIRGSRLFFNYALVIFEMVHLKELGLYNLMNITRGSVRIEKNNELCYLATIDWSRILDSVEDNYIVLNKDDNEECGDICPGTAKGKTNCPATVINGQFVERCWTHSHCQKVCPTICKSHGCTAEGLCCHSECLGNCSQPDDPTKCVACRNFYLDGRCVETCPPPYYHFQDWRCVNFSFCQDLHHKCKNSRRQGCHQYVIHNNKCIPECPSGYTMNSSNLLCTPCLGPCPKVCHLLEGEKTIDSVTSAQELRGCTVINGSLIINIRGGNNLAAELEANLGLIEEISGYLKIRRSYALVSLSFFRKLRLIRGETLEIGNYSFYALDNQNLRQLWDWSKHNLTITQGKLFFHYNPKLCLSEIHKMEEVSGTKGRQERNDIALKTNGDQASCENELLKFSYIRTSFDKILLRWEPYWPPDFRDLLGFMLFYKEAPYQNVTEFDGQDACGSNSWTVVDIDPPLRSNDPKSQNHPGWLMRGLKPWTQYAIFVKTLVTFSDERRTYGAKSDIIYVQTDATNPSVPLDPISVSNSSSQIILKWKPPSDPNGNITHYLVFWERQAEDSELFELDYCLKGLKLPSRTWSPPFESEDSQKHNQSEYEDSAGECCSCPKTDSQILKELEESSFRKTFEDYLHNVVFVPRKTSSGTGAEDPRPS
Insulin receptor (Homo sapiens), sequence (P06213 763-1382 limits assumed): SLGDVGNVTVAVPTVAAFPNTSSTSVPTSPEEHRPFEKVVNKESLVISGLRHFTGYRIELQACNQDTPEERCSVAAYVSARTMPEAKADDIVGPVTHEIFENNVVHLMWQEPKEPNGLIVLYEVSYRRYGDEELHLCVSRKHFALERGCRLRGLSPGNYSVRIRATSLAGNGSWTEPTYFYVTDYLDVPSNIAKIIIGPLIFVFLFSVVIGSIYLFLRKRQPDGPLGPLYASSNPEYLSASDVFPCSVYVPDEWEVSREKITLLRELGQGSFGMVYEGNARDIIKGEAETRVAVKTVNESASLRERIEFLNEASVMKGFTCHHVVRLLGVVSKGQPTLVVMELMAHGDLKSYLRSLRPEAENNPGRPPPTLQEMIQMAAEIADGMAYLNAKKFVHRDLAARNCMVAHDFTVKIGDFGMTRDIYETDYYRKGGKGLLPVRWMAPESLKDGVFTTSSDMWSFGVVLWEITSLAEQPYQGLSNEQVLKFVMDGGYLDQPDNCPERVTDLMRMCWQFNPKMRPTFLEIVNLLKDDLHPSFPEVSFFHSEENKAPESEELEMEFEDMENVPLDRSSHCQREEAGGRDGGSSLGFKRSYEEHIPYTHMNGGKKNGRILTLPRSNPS

inhibition [2]: -6%
inhibition [3]: 0%
inhibition [4]: -6%
IC50 [5]: 489 nM
inhibition [6]: 6%
clearance [7]: 23.3 mL/min/kg
IC50 [8]: 1270 nM
inhibition [9]: 3%
inhibition [10]: 4%
AUC [12]: 739 ng·h/mL
IC50 [13]: > 10000 nM
inhibition [14]: -8%
Cmax [15]: 1410 ng/mL
IC50 [17]: > 10000 nM
Tmax [18]: ~1 h
half-life [19]: ~4 h
inhibition [21]: 23%
inhibition [22]: 37%
inhibition [24]: -7%
inhibition [25]: -10%
inhibition [26]: -1%
inhibition [28]: -6%
inhibition [29]: 17%
inhibition [31]: -6%
inhibition [33]: -1%
inhibition [34]: 58%
inhibition [35]: -9%
AUC [36]: 347 ng·h/mL
inhibition [38]: 28%
IC50 [39]: > 10000 nM
clearance [40]: 48.3 mL/min/kg
Compound: O=C(Nc1nc2cccc(-c3ccc(CN4CCS(=O)(=O)CC4)cc3)n2n1)C1CC1 [FILGOTINIB]
Activity [1]: Active
Activity [11]: Active
Activity [16]: Active
Activity [20]: 743.8 ng/mL
Activity [23]: 7.8 ng/mL
Activity [27]: Active
Activity [30]: Active
Activity [32]: Active
inhibition [37]: Active
Activity [41]: Active
